Assays:
[1] = tested on: T-cell-rich lymphocytes / IL-2-dependent CTLL2 cells; assay: Cell response test: IL-2 activity (3H thymidine up-take of CTLL2 cells) in supernatant of spleen cells of mice immunized with R4 peptide (R4-KLH); assay type: cell-based, mouse; settings: mice immunized with R4 peptide
Protocol: Using a fusion peptide R4-KLH obtained in Example 3 (4) between GD3R4 and KLH or a MAP form fusion peptide R4MAP-KLH created between GD3R4 and KLH, immunization was performed as described in (1) above.
Briefly, an emulsion mixed with an adjuvant (1:1, by volume) was administered to each member of groups of mice, each group consisting of 3 mice (CD-1), in an amount of 100 μL/mouse (for one administration (ip), peptide 30 μg/mouse) for immunization. In the case of R4-KLH, administration was performed every one week for one month, and subsequently every two weeks for one month; and in the case of R4MAP-KLH, every one week for 2 months. In any case, 4 days after the final immunization, blood was collected to thereby prepare antiserum samples.
(§1) The spleen aseptically removed from each of the above-immunized mice was minced in a 10% FCS-supplemented RPMI 1640 medium. By use of a nylon wool column, T-cell-rich lymphocytes were prepared and the cells were counted. The above medium containing the cells in an amount of 10^5 cells per 150 μL was added to each of the wells of a culture plate. PHA was added so as to attain a final concentration of 1 μg/mL. A peptide of the present invention or any of different gangliosides in PBS was added, and the mixture was incubated for 96 hours. A supernatant (100 μL) was obtained from each well. The IL-2 activity of the supernatant was determined through use of IL-2-dependent mouse cells, CTLL2. Briefly, the supernatant (100 μL) diluted 2 to 50-fold with a medium was added to the wells in an amount of 10^4 CTLL2 cells/well, followed by incubation at 37° C. for 48 hours. Subsequently, 3H-thymidine (0.5 μCi) was added to each well, followed by incubation for 6 hours. CTLL2 cells were recovered on a paper filter and counted for 3H.

[2] = tested on: anti-GD3 antibody 4F6; assay: ELISA of MAPs immobilized at various amounts with 4F6 (Example 5(2), FIG. 3); assay type: binding, mouse; settings: MAPs or GD3 immobilized at various amounts
Description: (1) In a manner similar to that described in Example 3, peptides of N-terminus 9 amino acid residues or C-terminus 9 amino acid residues of GD3R1, GD3R2, GD3R3, or GD3R4. The nomenclature and sequences of respective peptides employed in the present test are shown in FIG. 2 These were employed as multi-antigen peptides (MAPs). (2) In order to extend the research on bonding between the anti-GD3 antibody 4F6 and each of the GD3-mimetic peptides shown in FIG. 1, multi-antigen peptides (MAPs) were subjected to ELISA. MAP samples having a variety of concentrations shown on the X-axis in FIG. 3 were provided, and each sample was immobilized onto the wells of a 96-well plate. Subsequently, the wells were blocked with a blocking solution (TBS supplemented with 1% BSA, 0.1% skim milk, and 0.02% Tween 20) at 4° C. overnight. 4F6 (hybridoma supernatant: used in the neat form) was added (100 μL/well) for reaction at room temperature for 2 hours. After completion of reaction, the supernatant was discarded, and the wells were washed with a washing solution (TBS supplemented with 1% FBS and 0.05% Tween 20) six times. Subsequently, the wells were allowed to react with peroxidase-labeled anti-mouse IgG (diluted 1,000-fold with a blocking solution) at room temperature for 2 hours. The wells were again washed with a washing solution four times, and the amount of peroxidase enzyme remaining in each well was detected and quantitatively determined with the substrate TMB, whereby binding of MAP to 4F6 was investigated. The test was performed in triplicate, and the values in the graph are “mean ±SD.”

[3] = tested on: T-cell-rich lymphocytes / IL-2-dependent CTLL2 cells; assay: Cell response test: IL-2 activity (3H thymidine up-take of CTLL2 cells) in supernatant of spleen cells of mice immunized with GD3; assay type: cell-based, mouse; settings: mice immunized with GD3
Protocol: Similar to the case of immunization with R4-KLH, antiserum samples were also prepared through immunization with GD3 (30 μg).
as §1

[4] = tested on: binding between GD3 and 4F6; assay: Inhibition by exogenously added MAPs of binding between GD3 and 4F6 (Example 5(4), FIG. 5); parameters: species or system mouse
Protocol: (4) Next, investigation was made as to whether binding between GD3R3 or GD3R4 and 4F6 occurred at the GD3 binding site of 4F6. To the wells of a plate to which GD3 had been immobilized (100 ng/well), each of the MAP samples having a variety of concentrations shown on the X-axis in FIG. 5 and 4F6 (100 μL/well) were simultaneously added, whereby an inhibitory test was performed. The test was performed in triplicate, and the values in the graph are “mean ±SD.”

[5] = tested on: binding between GD3 and 4F6 (anti-GD3 antibody); assay: Inhibition by immobilized MAPs of binding between GD3 and 4F6 (Example 5(3), FIG. 4); parameters: species or system mouse; settings: immobilized MAP or GD3 absorbs 4F6
Protocol: (3) The binding affinity shown in FIG. 3 was investigated in another method. Briefly, MAP samples having a variety of concentrations shown on the X-axis in FIG. 4 were provided. Each sample was immobilized onto the wells of a 96-well plate, and the wells were allowed to react with 4F6 (100 μL/well) at 4° C. overnight. On the following day, the supernatant (80 μL) was collected and added to the wells of another plate to which GD3 had been immobilized in advance (100 ng/well) for reaction at room temperature for 2 hours. After completion of reaction, the amount of antibody 4F6 that had been condensed with GD3 (i.e., that had not been absorbed by MAP) was detected and quantitatively determined through the method described (2) above, whereby inhibitory effect of MAP on binding of GD3 to 4F6 was investigated. The test was performed in triplicate, and the values in the graph are “mean ±SD.”

[6] = tested on: binding between GD3 and 4F6; assay: Inhibition by nine-residue MAPs of binding between GD3 and 4F6 (Example 5(5), FIG. 6); parameters: species or system mouse; settings: nine-residue MAP compared with the 15 residues
Protocol: Next, in an attempt to determine the domain required for establishing binding to anti-GD3 antibody 4F6 in GD3-mimetic peptides, an MAP of nine N-terminus residues of GD3R3 peptide and an MAP of nine C-terminus residues of the same GD3R3 peptide as shown in FIG. 2 were synthesized, their binding to 4F6 was studied by means of ELISA. ELISA was performed was performed in triplicate, and the values in the graphs are “mean ±SD.”

[7] = PHA 1 μg/mL + stimulant 0.5 μg/ml, supernatant dilution ½
[8] = stimulant 0.5 μg/ml, supernatant dilution 1/20
[9] = stimulant 0.5 μg/ml, supernatant dilution 1/50
[10] = stimulant 0.5 μg/ml, supernatant dilution ⅕
[11] = stimulant 1 μg/ml, supernatant dilution 1/20
[12] = stimulant 1 μg/ml, supernatant dilution 1/50
[13] = stimulant 1 μg/ml, supernatant dilution ½
[14] = stimulant 1 μg/ml, supernatant dilution ⅕
[15] = stimulant 2 μg/ml, supernatant dilution 1/20
[16] = stimulant 2 μg/ml, supernatant dilution 1/50
[17] = stimulant 2 μg/ml, supernatant dilution ½
[18] = stimulant 2 μg/ml, supernatant dilution ⅕
[19] = stimulant 5 μg/ml, supernatant dilution 1/20
[20] = stimulant 5 μg/ml, supernatant dilution 1/50
[21] = stimulant 5 μg/ml, supernatant dilution ½
[22] = stimulant 5 μg/ml, supernatant dilution ⅕

“NeuAc α2-8 NeuAc α2-3 Gal β1-4 Glc β1-1 Cer [GD3, reference compound]” was tested, and the “3H Thymidine up-take into CTLL2 cells, mean ± SE (4 wells)” value [1, 7] was 2635 ± 308, the “3H Thymidine up-take into CTLL2 cells, mean ± SE (4 wells)” value [1, 8] was 850 ± 87 and the “3H Thymidine up-take into CTLL2 cells, mean ± SE (4 wells)” value [1, 9] was 169 ± 25. For the same substance, the “3H Thymidine up-take into CTLL2 cells, mean ± SE (4 wells)” value [1, 10] was 1792 ± 154, the “3H Thymidine up-take into CTLL2 cells, mean ± SE (4 wells)” value [1, 11] was 794 ± 82 and the “3H Thymidine up-take into CTLL2 cells, mean ± SE (4 wells)” value [1, 12] was 202 ± 24. The “3H Thymidine up-take into CTLL2 cells, mean ± SE (4 wells)” value [1, 13] was 2721 ± 284, the “3H Thymidine up-take into CTLL2 cells, mean ± SE (4 wells)” value [1, 14] was 1658 ± 134 and the “3H Thymidine up-take into CTLL2 cells, mean ± SE (4 wells)” value [1, 15] was 809 ± 74. For the same substance, the “3H Thymidine up-take into CTLL2 cells, mean ± SE (4 wells)” value [1, 16] was 212 ± 28, the “3H Thymidine up-take into CTLL2 cells, mean ± SE (4 wells)” value [1, 17] was 2797 ± 295 and the “3H Thymidine up-take into CTLL2 cells, mean ± SE (4 wells)” value [1, 18] was 1722 ± 163. For the same substance, the “3H Thymidine up-take into CTLL2 cells, mean ± SE (4 wells)” value [1, 19] was 764 ± 68, the “3H Thymidine up-take into CTLL2 cells, mean ± SE (4 wells)” value [1, 20] was 184 ± 23 and the “3H Thymidine up-take into CTLL2 cells, mean ± SE (4 wells)” value [1, 21] was 2619 ± 316. The “3H Thymidine up-take into CTLL2 cells, mean ± SE (4 wells)” value [1, 22] was 1636 ± 145, the “binding of 4F6 to immobilized sample (words, FIG. 3)” value [2] was “declined from the concentration 0.8 μg/well and higher” and the “3H Thymidine up-take into CTLL2 cells, mean ± SE (4 wells)” value [3, 7] was 2795 ± 175. The “3H Thymidine up-take into CTLL2 cells, mean ± SE (4 wells)” value [3, 8] was 810 ± 72, the “3H Thymidine up-take into CTLL2 cells, mean ± SE (4 wells)” value [3, 9] was 207 ± 22 and the “3H Thymidine up-take into CTLL2 cells, mean ± SE (4 wells)” value [3, 10] was 1876 ± 152. For the same substance, the “3H Thymidine up-take into CTLL2 cells, mean ± SE (4 wells)” value [3, 11] was 762 ± 55, the “3H Thymidine up-take into CTLL2 cells, mean ± SE (4 wells)” value [3, 12] was 186 ± 27 and the “3H Thymidine up-take into CTLL2 cells, mean ± SE (4 wells)” value [3, 13] was 2568 ± 235. For the same substance, the “3H Thymidine up-take into CTLL2 cells, mean ± SE (4 wells)” value [3, 14] was 1834 ± 169, the “3H Thymidine up-take into CTLL2 cells, mean ± SE (4 wells)” value [3, 15] was 758 ± 61 and the “3H Thymidine up-take into CTLL2 cells, mean ± SE (4 wells)” value [3, 16] was 197 ± 28. For the same substance, the “3H Thymidine up-take into CTLL2 cells, mean ± SE (4 wells)” value [3, 17] was 2453 ± 264, the “3H Thymidine up-take into CTLL2 cells, mean ± SE (4 wells)” value [3, 18] was 1901 ± 188 and the “3H Thymidine up-take into CTLL2 cells, mean ± SE (4 wells)” value [3, 19] was 794 ± 68. For the same substance, the “3H Thymidine up-take into CTLL2 cells, mean ± SE (4 wells)” value [3, 20] was 179 ± 23, the “3H Thymidine up-take into CTLL2 cells, mean ± SE (4 wells)” value [3, 21] was 2656 ± 257 and the “3H Thymidine up-take into CTLL2 cells, mean ± SE (4 wells)” value [3, 22] was 1857 ± 185. For the same substance, the “inhibitory effect of exogenously added sample on binding between GD3 and 4F6 (words, FIG. 5)” value ([4]; added simultaneously with 4F6 to GD3 100 ng/well) was “exhibited inhibitory effect”, the “order of binding strength to 4F6” value ([4]; deduced from FIG. 5) was “GD3>GD3R3>GD3R4” and the “inhibition of GD3 binding to 4F6 by immobilized sample (words, FIG. 4)” value [5] was “inhibit GD3 from binding to the antibody”.
For “GD3R3C9: MAP of nine C-terminus residues of GD3R3 peptide (YAQRFFLLS)”, the “ability to inhibit binding between GD3 and 4F6 (words, FIG. 6)” value [6] was “comparable ability to the 15 residues”.

From patent US8017584B2, “GD3-mimetic peptides” (Otsuka Pharmaceutical Co., Ltd., priority 2000, dated 2011)
